Assay results: patent US20150284375A1 (AJINOMOTO CO., INC., priority 2012, published 2015)

target: T1, human TRPA1 (Homo sapiens, UniProt O75762); assay: Measurement of TRPA1 antagonist activity (intracellular calcium increase, FLIPR, allylisothiocyanate stimulation); type: cell-based; conditions: 293T cells transfected with human TRPA1; allylisothiocyanate 20 μM; concentration for 50% inhibitory rate; read-out: antagonism hTRPA1
T1 construct: expressed in transfected cells; host or cells: Human embryonic kidney-derived 293T cells, transiently transfected with the pcDNA3.1/zeo(+) human TRPA1 plasmid
Text: Measurement of TRPA1 Antagonist Activity
Human TRPA1 Expression Plasmid
As cDNA encoding human TRPA1 (GenBank accession No. […]), a commercially available product was purchased (manufactured by Kazusa DNA Research Institute, clone No.: pFN21AB7348, item No.: FHC07217). Using this as a template, full-length human TRPA1 gene was amplified using the primer sequences shown below, by reaction using DNA polymerase (manufactured by Stratagene, trade name: PfuUltra High-Fidelity DNA Polymerase).
A recognition site (underlined) of restriction enzyme HindIII was added to the 5′ side, and XbaI site (underlined) was added to the 3′ side, and GTT of the template sequence was changed to termination codon TAG (bold). The obtained double stranded DNA was enzyme-digested with HindIII and XbaI, and introduced into a multicloning site of expression plasmid pcDNA3.1/zeo(+) (manufactured by Invitrogen) to give a human TRPA1 expression plasmid.
Human embryonic kidney-derived 293T cells were cultured in Dulbecco's Modified Eagle Medium containing 10% fetal bovine serum, 10 unit penicillin, and 10 μg streptomycin, plated on a petri dish having a diameter of 10 cm at 3×10^6 cells, and cultured for 24 hr. A medium containing a reduced amount of serum (manufactured by Invitrogen, trade name: OPTI-MEM, 600 μL), a gene insertion reagent (manufactured by Mirus Bio, trade name: Mirus TransIT-293, 18 μL), and human TRPA1 expression plasmid (6 μg) were mixed, the total amount of the mixture was added to the cells on the petri dish to allow for gene transfer. The cells were recovered about 8 hr later, plated on a poly-D-lysine coated 384 well black/clear bottom plate at 7,500-12,000 cells/well, and cultured overnight.
Measurement of Intracellular Calcium Increase
The 384 well plate was recovered, and the medium was removed. A calcium-bonded fluorescent indicator (manufactured by Molecular Device, trade name: Calcium4 Assay Kit, 40 μL) dissolved in assay buffer (1×HBSS, 20 mM HEPES, pH 7.2) was added, and the cells were stained in a 37° C. incubator for 1 hr. The cells were taken out at room temperature and left standing for 15 min or more. A test substance (10 μL) was added by a 384 well type dispenser, and the mixture was incubated at room temperature for 10 min. Then, allylisothiocyanate (12.5 μL) at a final concentration of 20 μM was added by a fluorescence imaging plate reader (manufactured by Molecular Device, FLIPR), and changes in the relative fluorescence intensity were measured for 5 min.
Test Substance Preparation
The test substance was dissolved in dimethyl sulfoxide and serially diluted with an assay buffer containing 0.1% bovine serum albumin (1×HBSS, 20 mM HEPES, pH 7.2) to a 5-fold concentration of the evaluation concentration. Allylisothiocyanate, which is a known TRPA1 activator, was dissolved in dimethyl sulfoxide to 100 mM, and further diluted 5-fold (100 μM) of the final concentration, like the test substance.
Calculation of Antagonist Activity
Under the test substance-free conditions, the maximum variation range of the fluorescence intensity before and after allylisothiocyanate stimulation was defined to be 100% activity rate, and the variation range before and after buffer stimulation was defined as 0% activity rate. The activity rate on addition of the test substance was determined, and the numerical value obtained by subtracting the activity rate from 100 was defined to be an inhibitory rate. 1050, which is the concentration of the test substance necessary for reaching the 50% inhibitory rate, was calculated from the sigmoid approximate curve by a spreadsheet software Excel-Fit.

T1 sequence (O75762 whole entry): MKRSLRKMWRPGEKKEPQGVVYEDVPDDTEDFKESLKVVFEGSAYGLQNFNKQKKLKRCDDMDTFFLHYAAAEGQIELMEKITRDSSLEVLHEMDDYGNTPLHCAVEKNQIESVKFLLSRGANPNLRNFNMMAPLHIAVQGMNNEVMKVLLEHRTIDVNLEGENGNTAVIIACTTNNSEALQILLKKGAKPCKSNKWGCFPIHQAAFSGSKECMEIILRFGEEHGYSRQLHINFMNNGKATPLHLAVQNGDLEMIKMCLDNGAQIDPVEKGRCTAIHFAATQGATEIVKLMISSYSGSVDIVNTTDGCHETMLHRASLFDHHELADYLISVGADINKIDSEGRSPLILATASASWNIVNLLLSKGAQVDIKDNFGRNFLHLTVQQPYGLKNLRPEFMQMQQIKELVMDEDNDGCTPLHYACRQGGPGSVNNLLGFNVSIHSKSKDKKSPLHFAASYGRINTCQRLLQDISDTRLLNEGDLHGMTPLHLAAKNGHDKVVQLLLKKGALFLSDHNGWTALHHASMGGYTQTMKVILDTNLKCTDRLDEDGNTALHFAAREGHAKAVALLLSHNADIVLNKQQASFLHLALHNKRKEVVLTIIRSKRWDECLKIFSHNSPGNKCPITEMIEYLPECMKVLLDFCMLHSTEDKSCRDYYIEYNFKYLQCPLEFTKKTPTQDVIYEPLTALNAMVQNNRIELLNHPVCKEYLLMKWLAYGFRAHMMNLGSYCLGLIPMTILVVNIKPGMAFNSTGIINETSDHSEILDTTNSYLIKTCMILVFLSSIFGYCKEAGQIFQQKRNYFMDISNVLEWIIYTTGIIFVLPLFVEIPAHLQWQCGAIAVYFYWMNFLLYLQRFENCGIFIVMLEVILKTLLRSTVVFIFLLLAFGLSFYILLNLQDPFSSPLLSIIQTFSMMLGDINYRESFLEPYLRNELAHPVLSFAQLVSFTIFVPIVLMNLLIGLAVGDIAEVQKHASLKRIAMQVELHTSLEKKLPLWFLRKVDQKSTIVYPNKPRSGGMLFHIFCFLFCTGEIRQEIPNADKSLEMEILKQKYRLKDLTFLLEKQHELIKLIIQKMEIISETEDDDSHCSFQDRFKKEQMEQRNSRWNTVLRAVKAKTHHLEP

Compound	IC50 [nM]
O=C(NCc1cccc(Oc2ccc(C(F)(F)F)cc2)c1)[C@@H]1CCCN1S(=O)(=O)c1ccc(Cl)cc1 [Example 38, (2S)-1-(4-chlorophenyl)sulfonyl-N-({3-[4-(trifluoro-methyl)phenoxy]phenyl}methyl)pyrrolidine-2-carboxamide]	76
O=C(NCc1cc(Oc2ccc(C(F)(F)F)cc2)ccn1)[C@@H]1CCCN1S(=O)(=O)c1ccc(Cl)s1 [Example 40, (2S)-1-(5-chlorothiophene-2-sulfonyl)-N-({4-[4-(trifluoro-methyl)phenoxy]-2-pyridyl}methyl)pyrrolidine-2-carboxamide]	66
O=C(NCc1ccc(COc2ccc(C(F)(F)F)cc2)cc1)[C@@H]1CCCN1S(=O)(=O)c1ccc(Cl)s1 [Example 42, (2S)-1-(5-chlorothiophene-2-sulfonyl)-N-((4-{[4-(trifluoro-methyl)phenoxy]methyl}phenyl)methyl)pyrrolidine-2-carboxamide]	227
O=C(NCc1ccc(COc2ccc(OC(F)(F)F)cc2)cc1)[C@@H]1CCCN1S(=O)(=O)c1ccc(Cl)s1 [Example 43, (2S)-1-(5-chlorothiophene-2-sulfonyl)-N-((4-{[4-(trifluoro-methoxy)phenoxy]methyl}phenyl)methyl)pyrrolidine-2-carboxamide]	380
COc1ccc(OCc2ccc(CNC(=O)[C@@H]3CCCN3S(=O)(=O)c3ccc(Cl)s3)cc2)cc1 [Example 45, (2S)-1-(5-chlorothiophene-2-sulfonyl)-N-({4-[(4-methoxy-phenoxy)methyl]phenyl}methyl)pyrrolidine-2-carboxamide]	670
O=C(NCc1ccc(COc2ccc(F)cc2)cc1)[C@@H]1CCCN1S(=O)(=O)c1ccc(Cl)s1 [Example 46, (2S)-1-(5-chlorothiophene-2-sulfonyl)-N-({4-[(4-fluoro-phenoxy)methyl]phenyl}methyl)pyrrolidine-2-carboxamide]	390
O=C(NCc1ccc(COc2ccc(Cl)cc2)cc1)[C@@H]1CCCN1S(=O)(=O)c1ccc(Cl)s1 [Example 47, (2S)-N-({4-[(4-chlorophenoxy)methyl]phenyl}methyl)-1-(5-chlorothiophene-2-sulfonyl)pyrrolidine-2-carboxamide]	620
O=C(NCc1ccc(COc2cccc(C(F)(F)F)c2)cc1)[C@@H]1CCCN1S(=O)(=O)c1ccc(Cl)s1 [Example 50]	242
CC(C)(C)Oc1ccc(OCc2ccc(CNC(=O)[C@@H]3CCCN3S(=O)(=O)c3ccc(Cl)s3)cc2)cc1 [Example 51, (2S)-N-({4-[(4-tert-butoxyphenoxy)methyl]phenyl}methyl)-1-(5-chlorothiophene-2-sulfonyl)pyrrolidine-2-carboxamide]	630
O=C(NCc1ccc(COc2cccc(OC(F)(F)F)c2)cc1)[C@@H]1CCCN1S(=O)(=O)c1ccc(Cl)s1 [Example 52, (2S)-1-(5-chlorothiophene-2-sulfonyl)-N-((4-{[3-(trifluoro-methoxy)phenoxy]methyl}phenyl)methyl)pyrrolidine-2-carboxamide]	210
Cc1cccc(OCc2ccc(CNC(=O)[C@@H]3CCCN3S(=O)(=O)c3ccc(Cl)s3)cc2)c1 [Example 53, (2S)-1-(5-chlorothiophene-2-sulfonyl)-N-({4-[(3-methyl-phenoxy)methyl]phenyl}methyl)pyrrolidine-2-carboxamide]	500
O=C(NCc1ccc(COc2cccc(F)c2)cc1)[C@@H]1CCCN1S(=O)(=O)c1ccc(Cl)s1 [Example 55, (2S)-1-(5-chlorothiophene-2-sulfonyl)-N-({4-[(3-fluoro-phenoxy)methyl]phenyl}methyl)pyrrolidine-2-carboxamide]	230
O=C(NCc1ccc(COc2cccc(Cl)c2)cc1)[C@@H]1CCCN1S(=O)(=O)c1ccc(Cl)s1 [Example 56, (2S)-N-({4-[(3-chlorophenoxy)methyl]phenyl}methyl)-1-(5-chlorothiophene-2-sulfonyl)pyrrolidine-2-carboxamide]	250
CN(C)c1cccc(OCc2ccc(CNC(=O)[C@@H]3CCCN3S(=O)(=O)c3ccc(Cl)s3)cc2)c1 [Example 59, (2S)-1-(5-chlorothiophene-2-sulfonyl)-N-((4-{[3-(dimethyl-amino)phenoxy]methyl}phenyl)methyl)pyrrolidine-2-carboxamide]	838

Continued by falling IC50, values first:

IC50 [nM]	Compound
2100	N#Cc1ccc(OCc2ccc(CNC(=O)[C@@H]3CCCN3S(=O)(=O)c3ccc(Cl)s3)cc2)cc1 [Example 49, (2S)-1-(5-chlorothiophene-2-sulfonyl)-N-({4-[(4-cyano-phenoxy)methyl]phenyl}methyl)pyrrolidine-2-carboxamide]
670	Cc1ccc(OCc2ccc(CNC(=O)[C@@H]3CCCN3S(=O)(=O)c3ccc(Cl)s3)cc2)cc1 [Example 44, (2S)-1-(5-chlorothiophene-2-sulfonyl)-N-({4-[(4-methyl-phenoxy)methyl]phenyl}methyl)pyrrolidine-2-carboxamide]
630	COC(=O)c1ccc(OCc2ccc(CNC(=O)[C@@H]3CCCN3S(=O)(=O)c3ccc(Cl)s3)cc2)cc1 [Example 48, methyl 4-((4-({[(2S)-1-(5-chlorothiophene-2-sulfonyl)pyrrolidine-2-carbonyl]amino}methyl)phenyl)methoxy)benzoate]
550	COc1cccc(OCc2ccc(CNC(=O)[C@@H]3CCCN3S(=O)(=O)c3ccc(Cl)s3)cc2)c1 [Example 54, (2S)-1-(5-chlorothiophene-2-sulfonyl)-N-({4-[(3-methoxy-phenoxy)methyl]phenyl}methyl)pyrrolidine-2-carboxamide]
420	O=C(NCc1ccc(COc2ccccc2C(F)(F)F)cc1)[C@@H]1CCCN1S(=O)(=O)c1ccc(Cl)s1 [Example 60, (2S)-1-(5-chlorothiophene-2-sulfonyl)-N-((4-{[2-(trifluoro-methyl)phenoxy]methyl}phenyl)methyl)pyrrolidine-2-carboxamide]
310	O=C(NCc1ccc(COc2ccccc2)cc1)[C@@H]1CCCN1S(=O)(=O)c1ccc(Cl)s1 [Example 41, (2S)-1-(5-chlorothiophene-2-sulfonyl)-N-{[4-(phenoxymethyl)phenyl]methyl}pyrrolidine-2-carboxamide]
310	O=C(NCc1ccc(COc2cc(F)cc(F)c2)cc1)[C@@H]1CCCN1S(=O)(=O)c1ccc(Cl)s1 [Example 57, (2S)-1-(5-chlorothiophene-2-sulfonyl)-N-({4-[(3,5-difluoro-phenoxy)methyl]phenyl}methyl)pyrrolidine-2-carboxamide]
310	COC(=O)c1cccc(OCc2ccc(CNC(=O)[C@@H]3CCCN3S(=O)(=O)c3ccc(Cl)s3)cc2)c1 [Example 58, methyl 3-((4-({[(2S)-1-(5-chlorothiophene-2-sulfonyl)pyrrolidine-2-carbonyl]amino}methyl)phenyl)methoxy)benzoate]
160	O=C(NCc1cccc(Oc2ccc(C(F)(F)F)cc2)c1)[C@@H]1CCN1S(=O)(=O)c1ccc(F)cc1 [Example 37, (2S)-1-(4-fluorophenyl)sulfonyl-N-({3-[4-(trifluoro-methyl)phenoxy]phenyl}methyl)azetidine-2-carboxamide]
64	O=C(NCc1ccnc(Oc2ccc(C(F)(F)F)cc2)c1)[C@@H]1CCCN1S(=O)(=O)c1ccc(Cl)s1 [Example 39, (2S)-1-(5-chlorothiophene-2-sulfonyl)-N-({2-[4-(trifluoro-methyl)phenoxy]-4-pyridyl}methyl)pyrrolidine-2-carboxamide]
28	O=C(NCc1cccc(Oc2ccc(C(F)(F)F)cc2)c1)[C@@H]1C=CCN1S(=O)(=O)c1ccc(F)cc1 [Example 36, (2S)-1-(4-fluorophenyl)sulfonyl-N-({3-[4-(trifluoromethyl)phenoxy]phenyl}methyl)-2,5-dihydropyrrole-2-carboxamide]
